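Following 48 hours of exposure in 96-well plates, responses at five concentrations were used to interpolate endpoints linearly. Definition used: TGI = concentration required for complete inhibition of growth.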
Key:
Assay in all cases: NCI anticancer screen, dose series, 48 h
[1] = tested on: HOP-62 NSCLC
[2] = tested on: KM12 colon
[3] = tested on: NCI-H522 lung
[4] = tested on: MCF7 breast
[5] = tested on: 786-0 renal
[6] = tested on: K-562 leukemia
[7] = tested on: SK-MEL-5 melanoma
[8] = tested on: M14 melanoma
[9] = tested on: SN12C renal
[10] = tested on: NCI-H226 lung
[11] = tested on: NCI/ADR-RES ovarian
[12] = tested on: T-47D breast
[13] = tested on: NCI-H23 lung
[14] = tested on: SK-OV-3 ovarian
[15] = tested on: OVCAR-3 ovarian
[16] = tested on: CCRF-CEM leukemia
[17] = tested on: PC-3 prostate
[18] = tested on: OVCAR-4 ovarian
[19] = tested on: A549 NSCLC
[20] = tested on: SF-268 CNS
[21] = tested on: MDA-N
[22] = tested on: HCT-116 colon
[23] = tested on: DU-145 prostate
[24] = tested on: MDA-MB-435
[25] = tested on: HT29 colon
[26] = tested on: RXF 393 renal
[27] = tested on: NCI-H460 lung
[28] = tested on: OVCAR-5 ovarian
[29] = tested on: SNB-19 CNS
[30] = tested on: TK-10 renal
[31] = tested on: MOLT-4 leukemia
[32] = tested on: HCC-2998 colon
[33] = tested on: HS 578T breast
[34] = tested on: BT-549 breast
[35] = tested on: UACC-257 melanoma
[36] = tested on: SK-MEL-2 melanoma
[37] = tested on: COLO 205 colon
[38] = tested on: SW-620 colon
[39] = tested on: SNB-75 CNS
[40] = tested on: UO-31 renal
[41] = tested on: SK-MEL-28 melanoma
[42] = tested on: MALME-3M melanoma
[43] = tested on: U251 CNS
[44] = tested on: HL-60(TB) leukemia
[45] = tested on: SR leukemia
[46] = tested on: LOX IMVI melanoma
[47] = tested on: OVCAR-8 ovarian
[48] = tested on: EKVX NSCLC
[49] = tested on: ACHN renal
[50] = tested on: SF-539 CNS
[51] = tested on: IGROV1 ovarian
[52] = tested on: HOP-92 NSCLC
[53] = tested on: MDA-MB-231 breast
[54] = tested on: HCT-15 colon
[55] = tested on: CAKI-1 renal
[56] = tested on: RPMI-8226 leukemia
[57] = tested on: A498 renal
[58] = tested on: UACC-62 melanoma
[59] = tested on: SF-295 CNS

CCN(CC)C(=O)Cn1c(-c2ccccc2)cc2ccccc21
TGI [1]: > 100 µM | TGI [2]: > 100 µM | TGI [3]: > 100 µM | TGI [4]: > 100 µM | TGI [5]: > 100 µM | TGI [6]: > 100 µM | TGI [7]: 31.9 µM | TGI [8]: > 100 µM | TGI [9]: > 100 µM | TGI [10]: > 100 µM | TGI [11]: > 100 µM | TGI [12]: > 100 µM | TGI [13]: > 100 µM | TGI [14]: > 100 µM | TGI [15]: > 100 µM | TGI [16]: > 100 µM | TGI [17]: > 100 µM | TGI [18]: > 100 µM | TGI [19]: > 100 µM | TGI [20]: > 100 µM | TGI [21]: > 100 µM | TGI [22]: > 100 µM | TGI [23]: > 100 µM | TGI [24]: > 100 µM | TGI [25]: > 100 µM | TGI [26]: 97.4 µM | TGI [27]: > 100 µM | TGI [28]: > 100 µM | TGI [29]: > 100 µM | TGI [30]: > 100 µM | TGI [31]: 42.7 µM | TGI [32]: > 100 µM | TGI [33]: > 100 µM | TGI [34]: 94.5 µM | TGI [35]: > 100 µM | TGI [36]: > 100 µM | TGI [37]: 34 µM | TGI [38]: > 100 µM | TGI [39]: > 100 µM | TGI [40]: 64.5 µM | TGI [41]: > 100 µM | TGI [42]: > 100 µM | TGI [43]: > 100 µM | TGI [44]: > 100 µM | TGI [45]: > 100 µM | TGI [46]: > 100 µM | TGI [47]: > 100 µM | TGI [48]: > 100 µM | TGI [49]: > 100 µM | TGI [50]: > 100 µM | TGI [51]: > 100 µM | TGI [52]: 77.7 µM | TGI [53]: > 100 µM | TGI [54]: > 100 µM

CC(=O)N1N=C(c2ccc3ccccc3c2O)CC1c1cccs1 (stereo unspecified)
TGI [1]: > 100 µM | TGI [2]: 46.4 µM | TGI [3]: 75.1 µM | TGI [4]: > 100 µM | TGI [6]: 22.5 µM | TGI [55]: > 100 µM | TGI [7]: > 100 µM | TGI [8]: 39.1 µM | TGI [9]: > 100 µM | TGI [10]: > 100 µM | TGI [11]: 39.5 µM | TGI [12]: > 100 µM | TGI [13]: > 100 µM | TGI [14]: > 100 µM | TGI [15]: > 100 µM | TGI [56]: 47.1 µM | TGI [16]: > 100 µM | TGI [17]: > 100 µM | TGI [18]: > 100 µM | TGI [19]: 94.9 µM | TGI [20]: > 100 µM | TGI [21]: > 100 µM | TGI [22]: > 100 µM | TGI [23]: > 100 µM | TGI [24]: > 100 µM | TGI [57]: 44.5 µM | TGI [25]: > 100 µM | TGI [26]: 99.3 µM | TGI [27]: > 100 µM | TGI [28]: > 100 µM | TGI [58]: 25.9 µM | TGI [30]: > 100 µM | TGI [31]: 33.5 µM | TGI [32]: 66 µM | TGI [59]: > 100 µM | TGI [33]: > 100 µM | TGI [34]: 83.9 µM | TGI [35]: > 100 µM | TGI [36]: 74.3 µM | TGI [37]: > 100 µM | TGI [38]: > 100 µM | TGI [39]: > 100 µM | TGI [40]: 64.1 µM | TGI [41]: > 100 µM | TGI [42]: > 100 µM | TGI [43]: > 100 µM | TGI [45]: 14.3 µM | TGI [47]: > 100 µM | TGI [49]: > 100 µM | TGI [50]: 89.2 µM | TGI [51]: > 100 µM | TGI [52]: > 100 µM | TGI [53]: > 100 µM | TGI [54]: > 100 µM

CCOC1=NC(C(F)(F)F)(C(F)(F)F)N=C(N2CCOCC2)O1
TGI [2]: > 100 µM | TGI [3]: > 100 µM | TGI [4]: > 100 µM | TGI [55]: > 100 µM | TGI [7]: > 100 µM | TGI [8]: > 100 µM | TGI [9]: > 100 µM | TGI [11]: > 100 µM | TGI [12]: > 100 µM | TGI [13]: > 100 µM | TGI [14]: > 100 µM | TGI [15]: > 100 µM | TGI [56]: > 100 µM | TGI [16]: > 100 µM | TGI [17]: > 100 µM | TGI [18]: > 100 µM | TGI [19]: > 100 µM | TGI [20]: > 100 µM | TGI [21]: > 100 µM | TGI [22]: > 100 µM | TGI [23]: > 100 µM | TGI [24]: > 100 µM | TGI [25]: > 100 µM | TGI [26]: > 100 µM | TGI [27]: > 100 µM | TGI [28]: > 100 µM | TGI [58]: > 100 µM | TGI [29]: > 100 µM | TGI [30]: > 100 µM | TGI [31]: > 100 µM | TGI [32]: > 100 µM | TGI [59]: > 100 µM | TGI [33]: > 100 µM | TGI [34]: > 100 µM | TGI [35]: > 100 µM | TGI [36]: > 100 µM | TGI [37]: > 100 µM | TGI [38]: > 100 µM | TGI [39]: > 100 µM | TGI [40]: > 100 µM | TGI [41]: > 100 µM | TGI [43]: > 100 µM | TGI [44]: > 100 µM | TGI [45]: > 100 µM | TGI [46]: > 100 µM | TGI [47]: > 100 µM | TGI [48]: > 100 µM | TGI [49]: > 100 µM | TGI [50]: > 100 µM | TGI [51]: > 100 µM | TGI [52]: > 100 µM | TGI [53]: > 100 µM | TGI [54]: > 100 µM

CCOC(=O)CCC(NC(=O)Cc1ccc(Nc2nc3ccccc3nc2-c2cccs2)cc1)C(=O)OCC (stereo unspecified)
TGI [1]: > 100 µM | TGI [2]: > 100 µM | TGI [3]: > 100 µM | TGI [4]: > 100 µM | TGI [5]: > 100 µM | TGI [6]: > 100 µM | TGI [55]: > 100 µM | TGI [7]: > 100 µM | TGI [8]: > 100 µM | TGI [9]: > 100 µM | TGI [10]: > 100 µM | TGI [11]: > 100 µM | TGI [12]: 66.9 µM | TGI [13]: > 100 µM | TGI [14]: > 100 µM | TGI [15]: > 100 µM | TGI [56]: > 100 µM | TGI [16]: > 100 µM | TGI [17]: > 100 µM | TGI [18]: > 100 µM | TGI [19]: > 100 µM | TGI [20]: > 100 µM | TGI [21]: > 100 µM | TGI [22]: > 100 µM | TGI [23]: > 100 µM | TGI [24]: > 100 µM | TGI [57]: > 100 µM | TGI [25]: > 100 µM | TGI [26]: 52.5 µM | TGI [27]: > 100 µM | TGI [28]: > 100 µM | TGI [58]: > 100 µM | TGI [29]: > 100 µM | TGI [30]: 84.5 µM | TGI [31]: > 100 µM | TGI [32]: > 100 µM | TGI [59]: > 100 µM | TGI [33]: > 100 µM | TGI [34]: > 100 µM | TGI [35]: > 100 µM | TGI [36]: > 100 µM | TGI [37]: > 100 µM | TGI [38]: > 100 µM | TGI [39]: > 100 µM | TGI [40]: > 100 µM | TGI [41]: > 100 µM | TGI [42]: > 100 µM | TGI [43]: > 100 µM | TGI [44]: > 100 µM | TGI [45]: > 100 µM | TGI [48]: > 100 µM | TGI [49]: > 100 µM | TGI [50]: > 100 µM | TGI [53]: > 100 µM | TGI [54]: > 100 µM

— PubChem BioAssay (NCI)
